Reference: PMC10574185, “Encapsulation and Biological Activity of Hesperetin Derivatives with HP-β-CD” (Molecules, 2023)
≈ marks a conversion by molar mass, not a printed value. Like-named read-outs stand apart in the source and are kept apart here.

Assays:
HaCaT cells = assay: MTT cytotoxicity assay on HaCaT keratinocytes; format: cell-based, human; details: 48 h exposure
Method: HaCaT keratinocyte cells were exposed to chemical compounds at nine different concentrations (from 3.9 to 995.6 µg/mL) in four replicates of each concentration for 24 and 48 h.
All compounds were dissolved in sterile DMSO (Merck Life Science, Warsaw, Poland) and were sterile-filtered with 0.22 µm pore size sterile disposable syringe filters.
HaCaT cell line (the normal immortalised human keratinocytes) used in the study derived from the 35th passage (the original material created by Prof. Dr. Petra Boukamp and Dr. Norbert Fusenig) was purchased from Cell Line Service GmbH (Eppelheim, Germany). The cells were cultured and propagated as described previously.
The cytotoxicity was assessed with MTT assay according to methodology applied previously.
The following final concentrations (in four replicates per experiment) of the test compounds were tested (µg/mL): 3.9; 7.8; 15.6; 31.1; 62.2; 124.5; 248.9; 497.8, and 995.6. […] Three independent experiments were conducted. The vehicle was cells in the culture medium. The assay was conducted for 24 h and 48 h.

[1] = Phase solubility studies with HP-β-CD; format: physicochemical; details: for solubility at 60 min: thermodynamic from solid
Method: The purpose of this part of the study was to determine the solubility of compounds of hesperetin and its Schiff bases (HHSB, HIN, and HTSC) in aqueous solution at different pHs and temperatures, and the effect of their inclusion in modified HP-β-CD on the aqueous solubility of these compounds at different pH values.
The effect of the presence of HP-β-CD at different temperatures (25, 37, and 60 °C) was determined by developing phase solubility diagrams.
In accordance with the methodology described in Section 3.4, excess amounts of each tested substance were added to aqueous solution with increasing concentration of HP-β-CD up to 16 mM, respectively, in 2 mL of 100 mM sodium acetate buffer (pH 3.6), 100 mM sodium phosphate buffer (pH 6.5) or 100 mM sodium borate buffer (pH 8.5).
Phase solubility studies were conducted according to [64] with some modifications. Excess amounts of each tested substance were added to aqueous solution with increasing concentration of HP-β-CD up to 16 mM, in 2 mL of 100 mM sodium acetate buffer (pH 3.6), 100 mM sodium phosphate buffer (pH 6.5), or 100 mM sodium borate buffer (pH 8.5), respectively. The samples were maintained in an ultrasonic bath at various temperatures (25, 37, and 60 °C) for 60 min to reach equilibrium. The aqueous solutions were then filtered through 0.45 µm acetate cellulose (CA) membrane filter and diluted. The tested compound concentration on each clear filtrate was spectrophotometrically determined by measuring at their wavelength maximum.
The complexation constant (Kc) between studied molecules and HP-β-CD was determined by using Equation (1):(1) Kc=slope/S0 (1−slope) where S0 means the water solubility of the studied substance, and “slope” means the slope of the phase solubility diagram.
Complexation efficiency was calculated from the slope of the phase solubility diagram using Equation (2):(2) CE=S0×Kc=slope/1−slope
The CE was also applied to evaluate the molar ratio in solution of tested systems using Equation (3):(3) Compound:HP−β−CD=1:(1+1/CE)

[2] = DPPH assay (antioxidant activity); details: concentration 0.1 mg/mL, mean ± SD
Method: (§1) To evaluate the antioxidant ability of the tested systems, antioxidant analysis was performed. Antioxidants can scavenge hydroxyl radicals in two ways: by reacting directly with hydroxyl radicals (DPPH^•, ABTS^•+) or indirectly inhibiting the formation of hydroxyl radicals by chelating metal ions involved in the production of hydroxyl radicals. The antioxidant activity of the systems studied was investigated by using DPPH^• scavenging, ABTS^•+ scavenging ability, and Fe^2+-chelating ability. In this study, the antioxidant activity of pure hesperetin and its Schiff bases (HHSB, HIN, and HTSC) and HP-β-CD complexes were compared, and the positive control was Trolox.
The detailed methodology of DPPH assay was described in the previous paper by Sykuła et al..

[3] = ABTS^•+ radical cation decolorization assay; details: concentration 0.1 mg/mL, mean ± SD
Method: as §1
Antioxidant activity using ABTS^•+ cation radical scavenging was determined according to a modified method. ABTS solution (2.5 mM) was mixed with 1.0 mM potassium persulfate solution and left at room temperature in the dark for 12-24 h. After this time, the absorbance of the finished ABTS^•+ solution was corrected with ethanol to 0.70 ± 0.02 at 745 nm. A total of 100 µL of the sample was reacted for 5 min with 2 mL of ABTS^•+ solution (A745 nm = 0.70 ± 0.02). The absorbance value of the reaction mixture was measured at 745 nm. […] Scavenging activity (%) = [1 − (Asample − Ablank)/Acontrol] × 100%(4) where Acontrol is the absorbance value of the control (ABTS^•+ solution with water), Ablank is the absorbance value of samples mixed with anhydrous ethanol, and Asample is the absorbance value of the added test sample to ABTS^•+ solution at 745 nm, respectively.

- CE complexation efficiency ([1]; 25 °C, pH 3.6, with HP-β-CD): 0.07%
- Kc complexation constant ([1]; 25 °C, pH 3.6, with HP-β-CD): 13 ± 2.9 M⁻¹
- increase of solubility with HP-β-CD ([1]; 25 °C, pH 6.5, HP-β-CD at 16 mM): five-fold
- CE complexation efficiency ([1]; 25 °C, pH 6.5, with HP-β-CD): 0.07%
- Kc complexation constant ([1]; 25 °C, pH 6.5, with HP-β-CD): 11 ± 1.6 M⁻¹
- CE complexation efficiency ([1]; 25 °C, pH 8.5, with HP-β-CD): 0.1%
- Kc complexation constant ([1]; 25 °C, pH 8.5, with HP-β-CD): 12.5 ± 0.3 M⁻¹
- CE complexation efficiency ([1]; 37 °C, pH 3.6, with HP-β-CD): 0.1%
- Kc complexation constant ([1]; 37 °C, pH 3.6, with HP-β-CD): 16 ± 1.7 M⁻¹
- CE complexation efficiency ([1]; 37 °C, pH 6.5, with HP-β-CD): 0.1%
- Kc complexation constant ([1]; 37 °C, pH 6.5, with HP-β-CD): 16 ± 1.7 M⁻¹
- CE complexation efficiency ([1]; 37 °C, pH 8.5, with HP-β-CD): 0.3%
- Kc complexation constant ([1]; 37 °C, pH 8.5, with HP-β-CD): 18 ± 4.2 M⁻¹
- increase of solubility with HP-β-CD ([1]; 60 °C, pH 3.6): five-fold
- CE complexation efficiency ([1]; 60 °C, pH 3.6, with HP-β-CD): 0.5%
- Kc complexation constant ([1]; 60 °C, pH 3.6, with HP-β-CD): 28 ± 0.3 M⁻¹
- CE complexation efficiency ([1]; 60 °C, pH 6.5, with HP-β-CD): 0.04%
- Kc complexation constant ([1]; 60 °C, pH 6.5, with HP-β-CD): 2.2 ± 0.6 M⁻¹
- CE complexation efficiency ([1]; 60 °C, pH 8.5, with HP-β-CD): 0.1%
- Kc complexation constant ([1]; 60 °C, pH 8.5, with HP-β-CD): 3.2 ± 0.6 M⁻¹
- solubility at 60 min ([1]; aqueous buffer, 25 °C, pH 3.6 sodium acetate buffer, without cyclodextrin, read-out: solubility without HP-β-CD (value in brackets) (converted)): 17 µM (≈ 6.38 µg/mL)
- solubility at 60 min ([1]; aqueous buffer, 25 °C, pH 6.5 sodium phosphate buffer, without cyclodextrin, read-out: solubility without HP-β-CD (value in brackets) (converted)): 11 µM (≈ 4.13 µg/mL)
- solubility at 60 min ([1]; aqueous buffer, 25 °C, pH 8.5 sodium borate buffer, without cyclodextrin, read-out: solubility without HP-β-CD (value in brackets) (converted)): 20 µM (≈ 7.51 µg/mL)
- solubility at 60 min ([1]; aqueous buffer, 37 °C, pH 3.6 sodium acetate buffer, without cyclodextrin, read-out: solubility without HP-β-CD (value in brackets) (converted)): 28 µM (≈ 10.5 µg/mL)
- solubility at 60 min ([1]; aqueous buffer, 37 °C, pH 6.5 sodium phosphate buffer, without cyclodextrin, read-out: solubility without HP-β-CD (value in brackets) (converted)): 27 µM (≈ 10.1 µg/mL)
- solubility at 60 min ([1]; aqueous buffer, 37 °C, pH 8.5 sodium borate buffer, without cyclodextrin, read-out: solubility without HP-β-CD (value in brackets) (converted)): 220 µM (≈ 82.6 µg/mL)
- solubility at 60 min ([1]; aqueous buffer, 60 °C, pH 3.6 sodium acetate buffer, without cyclodextrin, read-out: solubility without HP-β-CD (value in brackets) (converted)): 37 µM (≈ 13.9 µg/mL)
- solubility at 60 min ([1]; aqueous buffer, 60 °C, pH 6.5 sodium phosphate buffer, without cyclodextrin, read-out: solubility without HP-β-CD (value in brackets) (converted)): 160 µM (≈ 60.1 µg/mL)
- solubility at 60 min ([1]; aqueous buffer, 60 °C, pH 8.5 sodium borate buffer, without cyclodextrin, read-out: solubility without HP-β-CD (value in brackets) (converted)): 250 µM (≈ 93.9 µg/mL)
- solubility at 60 min ([1]; 25 °C, pH 3.6 sodium acetate buffer, with HP-β-CD, read-out: S0 (solubility with HP-β-CD)): 54 ± 30 µM (≈ 20.3 µg/mL)
- solubility at 60 min ([1]; 25 °C, pH 6.5 sodium phosphate buffer, with HP-β-CD, read-out: S0 (solubility with HP-β-CD)): 61 ± 20 µM (≈ 22.9 µg/mL)
- solubility at 60 min ([1]; 25 °C, pH 8.5 sodium borate buffer, with HP-β-CD, read-out: S0 (solubility with HP-β-CD)): 70 ± 30 µM (≈ 26.3 µg/mL)
- solubility at 60 min ([1]; 37 °C, pH 3.6 sodium acetate buffer, with HP-β-CD, read-out: S0 (solubility with HP-β-CD)): 76 ± 35 µM (≈ 28.5 µg/mL)
- solubility at 60 min ([1]; 37 °C, pH 6.5 sodium phosphate buffer, with HP-β-CD, read-out: S0 (solubility with HP-β-CD)): 68 ± 33 µM (≈ 25.5 µg/mL)
- solubility at 60 min ([1]; 37 °C, pH 8.5 sodium borate buffer, with HP-β-CD, read-out: S0 (solubility with HP-β-CD)): 160 ± 54 µM (≈ 60.1 µg/mL)
- solubility at 60 min ([1]; 60 °C, pH 3.6 sodium acetate buffer, with HP-β-CD, read-out: S0 (solubility with HP-β-CD)): 170 ± 65 µM (≈ 63.8 µg/mL)
- solubility at 60 min ([1]; 60 °C, pH 6.5 sodium phosphate buffer, with HP-β-CD, read-out: S0 (solubility with HP-β-CD)): 180 ± 60 µM (≈ 67.6 µg/mL)
- solubility at 60 min ([1]; 60 °C, pH 8.5 sodium borate buffer, with HP-β-CD, read-out: S0 (solubility with HP-β-CD)): 270 ± 89 µM (≈ 101 µg/mL)
SMILES: COc1ccc(C2CC(=NNC(N)=S)c3c(O)cc(O)cc3O2)cc1O (stereo not drawn) [HTSC, N-[2,3-dihydro-5,7-dihydroxy-2-(3-hydroxy-4-methoxyphenyl)chromen-4-ylidene]thiosemicarbazide]
- Non-cytotoxic concentration (IC0) (HaCaT cells): ≤ 3.9 µg/mL
- IC50 (HaCaT cells; Homo sapiens, MTT, read-out: IC50 After 48 h): 11.9 µg/mL (≈ 31.7 µM)
- DPPH antioxidant activity [2]: 93.72 ± 6.8%
- ABTS^•+ antioxidant activity [3]: 86.61 ± 4.6%
